Measured values: patent US20240158386A1, “BENZOXAZOLONE INHIBITORS OF INFLAMMASOMES” (ICAHN SCHOOL OF MEDICINE AT MOUNT SINAI, priority 2021, published 2024)
Where two headings read alike, the source gives them in different places.

How the values were obtained:
NLRP3 inflammasome = target: T1, NLRP3 inflammasome (Mus musculus, UniProt Q8R4B8); experiment: NLRP3 inflammasome activation assay: IL-1β release by primary microglia after LPS and ATP; format: cell-based, murine
T1 construct: endogenous in cells; host or cells: primary microglia from cortices of 2-3 day old WT mouse pups
T1 sequence (Q8R4B8 whole entry): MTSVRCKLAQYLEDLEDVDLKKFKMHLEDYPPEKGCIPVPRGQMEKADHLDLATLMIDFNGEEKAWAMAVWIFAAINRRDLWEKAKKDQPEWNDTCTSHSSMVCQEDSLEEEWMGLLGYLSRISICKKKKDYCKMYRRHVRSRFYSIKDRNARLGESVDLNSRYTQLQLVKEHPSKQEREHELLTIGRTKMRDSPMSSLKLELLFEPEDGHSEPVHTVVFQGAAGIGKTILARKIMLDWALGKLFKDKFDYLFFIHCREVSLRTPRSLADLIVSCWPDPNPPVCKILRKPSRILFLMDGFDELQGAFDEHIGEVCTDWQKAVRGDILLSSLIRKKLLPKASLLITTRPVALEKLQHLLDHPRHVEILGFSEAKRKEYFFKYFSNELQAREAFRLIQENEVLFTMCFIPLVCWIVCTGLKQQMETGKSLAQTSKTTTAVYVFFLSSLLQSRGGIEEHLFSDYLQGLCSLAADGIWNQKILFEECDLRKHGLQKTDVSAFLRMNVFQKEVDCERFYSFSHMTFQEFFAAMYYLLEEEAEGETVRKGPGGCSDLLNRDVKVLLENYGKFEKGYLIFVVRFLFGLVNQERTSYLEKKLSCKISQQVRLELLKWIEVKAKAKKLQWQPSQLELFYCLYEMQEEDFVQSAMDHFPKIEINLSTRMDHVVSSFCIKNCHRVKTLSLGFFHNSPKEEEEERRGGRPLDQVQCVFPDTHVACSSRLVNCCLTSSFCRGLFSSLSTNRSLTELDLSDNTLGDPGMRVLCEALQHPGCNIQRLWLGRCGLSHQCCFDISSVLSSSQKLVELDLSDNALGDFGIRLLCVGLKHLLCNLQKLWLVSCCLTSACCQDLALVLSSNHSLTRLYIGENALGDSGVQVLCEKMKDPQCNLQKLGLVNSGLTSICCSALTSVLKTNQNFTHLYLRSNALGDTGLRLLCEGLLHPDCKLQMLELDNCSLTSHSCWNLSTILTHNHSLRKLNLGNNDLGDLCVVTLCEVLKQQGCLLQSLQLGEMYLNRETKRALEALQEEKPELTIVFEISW
Method: Murine primary microglia. Mixed cortical cultures were prepared as previously described (Bronstein, R. et al. J. Vis. Exp. JoVE 50647 (2013) doi:10.3791/50647). Briefly, cortices from 2-3 days old, WT, or NLRP3 KO pups were isolated, digested, and seeded at a density of 8 cortices per 10 ml petri dish. Every three days, the medium was replaced by fresh culture medium (DMEM, 10% FBS, 1% penicillin-streptomycin). After three weeks, mixed glial cultures had reached confluence, and microglia cells were isolated by mild trypsinization as previously described (Saura, J. et al. Glia 44, 183-189 (2003)). In brief, cells were washed with culture medium without FBS and treated with a mixture of trypsin 0.25% (without EDTA) and DMEM-F12 medium in a 1:3 proportion. After an incubation period of approximately 40 min, an intact layer of mixed glial cells detached, leaving microglia attached firmly to the bottom of the Petri-dish. Pure microglia were then isolated by 15 min incubation with trypsin (0.05%)-EDTA at 37° C., followed by gentle shaking. Cells were counted and seeded at the desired density, typically 7.5·10^4 cells/well in 24 well-plates.
NLRP3 inflammasome activation assay. Primary microglia cultures were incubated with the compounds that inhibited IL-1β production in THP1 macrophages. Cells pretreated with 100 μM of the compounds—or with the same DMSO volume, in the case of control samples—were primed with 400 ng/ml LPS for 3 hours, and activated with 4.5 mM ATP for 45 minutes or […] nigericin for 1 hour. Dose-response curves were conducted by incubating microglia cultures with different concentrations of the selected compounds, ranging from 0.001 to 100 μM, 1 hour before NLRP3 activation with LPS and ATP. Supernatants were collected for IL-1β and toxicity assessments.
Cytokine quantification. IL-1β in cell supernatants and brain tissue samples—after the different treatment groups—was quantified using the Mouse IL-1 beta/IL-1F2 DuoSet ELISA kit (R&D systems), IL-6 in cell culture supernatant was measured through the Mouse IL-6 ELISA kit (ThermoFisher), TNF-α in cell culture supernatants was determined using the Mouse TNF-alpha DuoSet ELISA (R*D systems), and IL-18 in brain tissue was measured through the IL-18 Mouse ELISA Kit (Invitrogen) following the manufacturers' recommended protocol. IL-1β precursor and cleaved IL-1β in the FC of mice treated with vehicles, LPS, or C77-LPS was assessed by western blot. All samples were run in technical duplicates.

AIM2 inflammasome = target: T2, AIM2 inflammasome (Mus musculus, UniProt Q91VJ1); experiment: AIM2 inflammasome activation assay: IL-1β release, microglia from NLRP3 KO mice, LPS and poly(dA:dT); format: cell-based
T2 construct: endogenous in cells; host or cells: primary microglia from NLRP3 KO mice
T2 sequence (Q91VJ1 1-354): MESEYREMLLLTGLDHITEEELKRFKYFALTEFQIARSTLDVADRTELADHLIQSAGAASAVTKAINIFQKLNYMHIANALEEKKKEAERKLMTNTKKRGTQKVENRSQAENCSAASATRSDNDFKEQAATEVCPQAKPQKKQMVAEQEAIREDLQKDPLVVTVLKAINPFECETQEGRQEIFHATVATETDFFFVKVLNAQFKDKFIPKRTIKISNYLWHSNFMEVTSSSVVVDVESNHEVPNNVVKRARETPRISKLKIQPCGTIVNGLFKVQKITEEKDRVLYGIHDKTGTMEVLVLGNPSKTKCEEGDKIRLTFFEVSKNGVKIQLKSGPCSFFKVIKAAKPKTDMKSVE
Method: AIM2, NLRP7, and NLRC4 inflammasomes activation assays. Microglia from NLRP3 KO mice were pre-treated with 100 μM C75, C78, C97, or C77, during one hour. AIM2 inflammasome activation was induced through the addition of 100 ng/ml LPS for 2 hours, followed by transfection of 1 μg poly(dA:dT) using Lipofectamine 2000 during 2 hours, following the manufacturer recommendations. NLRC4 was activated by treatment with 150 ng/ml LPS for 2 hours, before transfection of 1 μg flagellin during 2 hours, using lipofectamine 2000 as transfection reagent. Negative and positive controls were pre-treated with the same DMSO percentage as cells treated with the inhibitors. Negative controls were kept untreated after DMSO addition, while LPS-poly(dA:dT) or LPS-flagellin was added to positive controls for AIM2, and NLRC4 activation, respectively. For activation of the NLRP7 inflammasome different conditions were assessed: treatment of WT microglia cultures with 400 ng/ml fibroblast-stimulating lipopeptide-1 (fsl-1) for 7 hours, priming with 150 ng/ml LPS for 1 hour and treatment with 400 ng/ml fsl-1 for 7 hours, and priming with 150 ng/ml LPS and transfection of 400 ng/ml fsl-1 with lipofectamine. MCC950 was used as a negative control for NLRC4 and AIM-2 inhibition. […]
Cytokine quantification. […] IL-1β precursor and cleaved IL-1β in the FC of mice treated with vehicles, LPS, or C77-LPS was assessed by western blot. […]

O=C(Cn1c(=O)oc2ccccc21)NCc1cncc(-c2ccsc2)c1 [Compound C77]
inhibition of IL-1β release upon NLRP3 activation (NLRP3 inflammasome; 100 μM compound, microglia, LPS and ATP): inhibited NLRP3 with statistical significance
concentrations exerting inhibitory effects on NLRP3-mediated IL-1β (NLRP3 inflammasome; FIG. 2C, microglia, LPS and ATP): ≥ 100 nM
IC50 (NLRP3 inflammasome; FIG. 3A, read-out: NLRP3 IC50): 3.54 ± 1.3 µM
[Cx] to reach 100% of inhibition (NLRP3 inflammasome; IL-1β release, microglia, LPS and ATP): lower than 25 μM
IC50 (NLRP3 inflammasome; IL-1β release, microglia, LPS and ATP, nonlinear fit of dose-response, read-out: IC50): 4.1 ± 2.1 µM
inhibition of AIM2-mediated IL-1β release (AIM2 inflammasome): did not inhibit
